According to patent US20170056423A1 (Gilead Sciences, Inc., priority 2012, published 2017):
Read-outs that look alike come from different tables or passages of the source. Blank lines part the entries; values can stand above or below the molecule they belong to.

Columns and labels:
[1] = 25 mg level
Method: In order to provide a robust assessment of pharmacokinetic comparisons between test versus reference treatments, a balanced Williams 4×4 design was used in each cohort.
The evaluation used two cohorts of twenty patients. In Cohort 1, the following study treatments were administered.

[2] = biological target: human pregnane X receptor (Homo sapiens, UniProt O75469); assay: pregnane X receptor activation
[3] = Study 1, while receiving GS-7340 SA (25 mg)
HIV-1 = conditions: against HIV-1 in T cells, activated PBMCs, and macrophages
UGT1A1 = UGT1A1 (Homo sapiens, UniProt P22309); conditions: at concentrations up to 50 μM
[4] = test system: cytochrome P450 enzymes (all isoforms tested); assay: in vitro; conditions: human
[5] = biological target: aryl hydrocarbon receptor (Homo sapiens, UniProt P35869); assay: aryl hydrocarbon receptor activation
caco-2 cell monolayers = assay: bidirectional permeability of HIV protease inhibitors and GS-7340 through caco-2 monolayers; format: in vitro ADME; conditions: COBI 90 μM, GS-7340 10 μM, over 2 hours
[6] = test system: transporters including P-glycoprotein, MRP1, and MRP2; assay: permeability assays for transporter interaction; format: in vitro ADME
[7] = biological target: uridine glucuronosyltransferase 1A1 (Homo sapiens, UniProt P22309); assay: UGT1A1 inhibition by cobicistat; format: in vitro ADME
CYP2B6 = CYP2B6 (Homo sapiens, UniProt P20813); assay: CYP2B6 inhibition; format: in vitro ADME; conditions: similar potency to ritonavir
CYP1A2 = CYP1A2 (Homo sapiens, UniProt P05177); assay: CYP1A2 inhibition; format: in vitro ADME
Pgp = biological target: T1, Pgp (Homo sapiens, UniProt P08183); assay: Pgp inhibition assay, calcein AM accumulation in MDCKII-MDR1 cells; format: cell-based
T1 construct: expressed in transfected cells; host or cells: MDCKII (Madin-Darby canine kidney) cells, MDCKII-MDR1
Method: (§1) Pgp and BCRP inhibition assays in transfected Madin-Darby canine kidney (MDCKII) cells: Inhibition of Pgp-mediated transport was studied using the Pgp substrate calcein AM and MDCKII cells transfected with the human MDR1 (ABCB1) gene (encoding Pgp). Similarly, inhibition of BCRP-mediated transport was studied using the BCRP substrate Hoechst 33342 and MDCKII cells transfected with the human ABCG2 gene (encoding BCRP). Briefly, MDCKII cells were seeded in 96-well black cell culture plates with clear bottoms at a density of 5×10^4 cells/well and grown to confluence overnight. Test compounds were diluted in cell culture medium containing 10 μM Hoechst 33342 and incubated for 3 hours with MDCKII-BCRP and nontransfected cells. Following removal of media containing Hoechst 33342 and test compound, cells were washed twice with warm medium and lysed at room temperature for 5-10 minutes in a buffer containing 20 mM Tris-HCl pH 9.0 and 0.4% Triton X-100. Wells were analyzed for Hoechst 33342 fluorescence at an excitation of 353 nm and an emission of 460 nm. […]

BCRP [8] = biological target: T2, BCRP (Homo sapiens, UniProt Q9UNQ0); assay: BCRP substrate assay, bidirectional permeability in MDCKII-BCRP cells; format: in vitro ADME; conditions: 10 μM, MDCKII-BCRP vs MDCKII-WT, ± Ko134
T2 construct: expressed in transfected cells; host or cells: MDCKII (Madin-Darby canine kidney) cells, MDCKII-ABCG2 / MDCKII-BCRP
Method: (§2) Pgp and BCRP substrate assays in transfected MDCKII cells: MDCKII cells were grown to confluence over 4-6 days on 24-well PET transwell plates (BD Biosciences). The same buffers were used in the donor and receiver wells as described above for caco-2 studies. Experiments were conducted as described above for caco-2 transepithelial transport studies and samples analyzed by LC/MS/MS. Similar quality control and acceptance criteria were used as those described above for caco-2 studies. TEER values and the permeability of lucifer yellow, atenolol, and propranolol were determined to meet acceptance criteria for each batch of assay plates. Efflux ratios were determined to be at least 3-fold higher in transfected versus nontransfected monolayers for the model Pgp substrate vinblastine and BCRP substrate prazosin.
(§3) Data analysis: The 50% inhibition constants (IC50) values for transporters in the fluorescent accumulation studies done in MDCKII cells, defined as the test article concentration needed to inhibit the maximal transporter specific transport by 50%, were calculated using nonlinear curve fitting of inhibition versus concentration to a sigmoidal curve with a variable Hill coefficient using GraphPad Prism 5 (GraphPad Software Inc., San Diego, Calif.). […]

CYP2C9 = CYP2C9 (Homo sapiens, UniProt P11712); assay: CYP2C9 inhibition; format: in vitro ADME
[9] = test system: cytochrome P450, UGT1A1, or P-glycoprotein; assay: xenobiotic receptor transactivation and human hepatocyte induction studies; format: in vitro ADME; conditions: at up to 30 μM
CYP2D6 = CYP2D6 (Homo sapiens, UniProt P10635); assay: CYP2D6 inhibition; format: in vitro ADME
BCRP [10] = biological target: T2, BCRP; assay: BCRP inhibition assay, Hoechst 33342 accumulation in MDCKII-ABCG2 cells; format: cell-based; conditions: Hoechst 33342, MDCKII-ABCG2 cells
Method: as §1

CYP2C19 = CYP2C19 (Homo sapiens, UniProt P33261); assay: CYP2C19 inhibition; format: in vitro ADME
CYP2C8 = CYP2C8 (Homo sapiens, UniProt P10632); assay: CYP2C8 inhibition; format: in vitro ADME
[11] = biological target: T3, Pgp (multidrug resistance protein 1; MDR1) (Homo sapiens, UniProt P08183); assay: Pgp substrate assay, bidirectional permeability in MDCKII-MDR1 cells; format: in vitro ADME; conditions: 10 μM, MDCKII-MDR1 vs MDCKII-WT, ± CSA
T3 construct: expressed in transfected cells; host or cells: MDCKII (Madin-Darby canine kidney) cells, MDCKII-MDR1
Method: as §2, §3

cytochrome P450 enzymes = conditions: in vitro or in vivo in humans
[12] = in vivo
[13] = test system: UDP-glucuronosyltransferases; assay: UDP-glucuronosyltransferase interaction; format: in vitro ADME, human; conditions: in vitro or in vivo in humans

T2 sequence (Q9UNQ0 whole entry): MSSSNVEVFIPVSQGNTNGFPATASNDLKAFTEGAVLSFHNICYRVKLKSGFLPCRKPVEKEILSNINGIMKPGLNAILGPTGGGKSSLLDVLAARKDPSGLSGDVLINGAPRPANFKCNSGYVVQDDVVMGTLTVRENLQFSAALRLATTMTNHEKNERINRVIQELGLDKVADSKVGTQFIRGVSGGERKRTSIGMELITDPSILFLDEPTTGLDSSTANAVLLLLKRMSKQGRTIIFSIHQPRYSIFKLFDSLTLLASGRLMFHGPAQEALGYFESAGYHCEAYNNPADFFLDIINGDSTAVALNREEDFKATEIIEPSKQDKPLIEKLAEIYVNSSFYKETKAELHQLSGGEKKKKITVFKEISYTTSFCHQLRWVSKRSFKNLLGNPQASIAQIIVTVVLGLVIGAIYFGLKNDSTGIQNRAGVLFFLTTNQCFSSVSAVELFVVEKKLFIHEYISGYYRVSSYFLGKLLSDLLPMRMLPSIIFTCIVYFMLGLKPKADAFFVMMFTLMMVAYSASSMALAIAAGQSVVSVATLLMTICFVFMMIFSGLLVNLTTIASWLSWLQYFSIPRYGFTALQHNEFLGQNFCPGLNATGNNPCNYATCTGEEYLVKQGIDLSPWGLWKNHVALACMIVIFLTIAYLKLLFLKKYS
Sequence of CYP2C8 (P10632 whole entry): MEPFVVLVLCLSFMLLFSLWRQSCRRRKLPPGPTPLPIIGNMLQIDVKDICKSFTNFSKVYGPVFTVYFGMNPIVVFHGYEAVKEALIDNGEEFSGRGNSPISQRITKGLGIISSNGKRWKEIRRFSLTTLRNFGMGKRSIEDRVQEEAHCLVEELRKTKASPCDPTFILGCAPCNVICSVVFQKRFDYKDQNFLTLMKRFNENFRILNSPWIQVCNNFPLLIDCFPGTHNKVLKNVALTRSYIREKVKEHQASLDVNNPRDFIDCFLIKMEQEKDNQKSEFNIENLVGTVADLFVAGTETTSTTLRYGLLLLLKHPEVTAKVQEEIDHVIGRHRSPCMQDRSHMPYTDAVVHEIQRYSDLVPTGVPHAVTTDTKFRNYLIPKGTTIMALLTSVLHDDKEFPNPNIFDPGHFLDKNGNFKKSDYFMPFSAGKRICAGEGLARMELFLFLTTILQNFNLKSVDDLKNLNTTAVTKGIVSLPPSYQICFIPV
Sequence of CYP2C9 (P11712 whole entry): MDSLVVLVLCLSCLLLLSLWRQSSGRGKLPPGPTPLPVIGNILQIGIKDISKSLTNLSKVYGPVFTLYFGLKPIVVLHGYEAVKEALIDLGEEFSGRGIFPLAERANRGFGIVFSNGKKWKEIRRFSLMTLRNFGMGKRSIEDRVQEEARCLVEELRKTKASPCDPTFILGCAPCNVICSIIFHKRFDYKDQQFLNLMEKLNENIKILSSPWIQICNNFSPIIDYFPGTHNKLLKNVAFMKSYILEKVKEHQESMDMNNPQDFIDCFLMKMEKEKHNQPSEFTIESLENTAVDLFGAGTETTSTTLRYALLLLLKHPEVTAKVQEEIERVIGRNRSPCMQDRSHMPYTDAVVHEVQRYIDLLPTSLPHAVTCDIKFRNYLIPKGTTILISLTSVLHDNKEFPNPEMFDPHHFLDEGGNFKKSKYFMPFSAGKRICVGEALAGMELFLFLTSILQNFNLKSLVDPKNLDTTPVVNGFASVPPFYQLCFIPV
Sequence of CYP1A2 (P05177 whole entry): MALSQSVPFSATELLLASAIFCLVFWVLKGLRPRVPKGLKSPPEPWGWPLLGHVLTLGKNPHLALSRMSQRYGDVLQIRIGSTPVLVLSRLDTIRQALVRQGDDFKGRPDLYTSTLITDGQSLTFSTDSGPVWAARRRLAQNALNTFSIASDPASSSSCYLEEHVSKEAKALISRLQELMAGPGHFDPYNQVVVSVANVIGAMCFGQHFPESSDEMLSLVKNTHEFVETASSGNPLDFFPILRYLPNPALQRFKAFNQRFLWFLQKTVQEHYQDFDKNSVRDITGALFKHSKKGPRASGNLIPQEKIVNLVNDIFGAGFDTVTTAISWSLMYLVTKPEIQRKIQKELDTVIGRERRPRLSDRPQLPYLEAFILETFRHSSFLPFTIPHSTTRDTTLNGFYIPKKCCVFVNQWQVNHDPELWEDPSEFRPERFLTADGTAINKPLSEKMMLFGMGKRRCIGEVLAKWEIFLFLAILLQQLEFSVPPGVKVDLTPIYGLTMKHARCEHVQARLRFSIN
Sequence of CYP2B6 (P20813 whole entry): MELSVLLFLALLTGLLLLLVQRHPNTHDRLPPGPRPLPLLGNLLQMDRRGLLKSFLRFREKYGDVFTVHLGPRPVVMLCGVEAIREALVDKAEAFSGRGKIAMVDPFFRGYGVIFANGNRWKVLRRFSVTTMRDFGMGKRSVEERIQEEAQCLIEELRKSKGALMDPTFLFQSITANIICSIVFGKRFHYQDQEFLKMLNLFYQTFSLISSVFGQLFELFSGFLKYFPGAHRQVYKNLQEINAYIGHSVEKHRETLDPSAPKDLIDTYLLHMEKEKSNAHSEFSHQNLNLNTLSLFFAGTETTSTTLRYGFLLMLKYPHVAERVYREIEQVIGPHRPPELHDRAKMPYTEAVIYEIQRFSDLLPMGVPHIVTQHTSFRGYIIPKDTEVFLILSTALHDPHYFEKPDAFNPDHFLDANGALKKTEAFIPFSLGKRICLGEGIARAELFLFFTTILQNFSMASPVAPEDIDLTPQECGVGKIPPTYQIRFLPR
Sequence of human pregnane X receptor (O75469 whole entry): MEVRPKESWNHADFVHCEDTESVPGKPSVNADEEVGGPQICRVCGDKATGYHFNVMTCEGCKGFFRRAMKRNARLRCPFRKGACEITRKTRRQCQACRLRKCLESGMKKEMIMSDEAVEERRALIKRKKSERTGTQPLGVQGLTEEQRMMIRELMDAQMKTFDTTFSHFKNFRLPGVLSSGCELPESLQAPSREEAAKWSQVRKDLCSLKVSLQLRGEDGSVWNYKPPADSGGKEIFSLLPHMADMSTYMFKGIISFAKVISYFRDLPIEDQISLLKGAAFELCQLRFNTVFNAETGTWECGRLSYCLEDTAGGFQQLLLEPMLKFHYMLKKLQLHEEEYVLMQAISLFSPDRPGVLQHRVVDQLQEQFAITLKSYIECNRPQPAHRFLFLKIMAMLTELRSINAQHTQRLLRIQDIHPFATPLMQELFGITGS
Sequence of aryl hydrocarbon receptor (P35869 11-848, species assumed): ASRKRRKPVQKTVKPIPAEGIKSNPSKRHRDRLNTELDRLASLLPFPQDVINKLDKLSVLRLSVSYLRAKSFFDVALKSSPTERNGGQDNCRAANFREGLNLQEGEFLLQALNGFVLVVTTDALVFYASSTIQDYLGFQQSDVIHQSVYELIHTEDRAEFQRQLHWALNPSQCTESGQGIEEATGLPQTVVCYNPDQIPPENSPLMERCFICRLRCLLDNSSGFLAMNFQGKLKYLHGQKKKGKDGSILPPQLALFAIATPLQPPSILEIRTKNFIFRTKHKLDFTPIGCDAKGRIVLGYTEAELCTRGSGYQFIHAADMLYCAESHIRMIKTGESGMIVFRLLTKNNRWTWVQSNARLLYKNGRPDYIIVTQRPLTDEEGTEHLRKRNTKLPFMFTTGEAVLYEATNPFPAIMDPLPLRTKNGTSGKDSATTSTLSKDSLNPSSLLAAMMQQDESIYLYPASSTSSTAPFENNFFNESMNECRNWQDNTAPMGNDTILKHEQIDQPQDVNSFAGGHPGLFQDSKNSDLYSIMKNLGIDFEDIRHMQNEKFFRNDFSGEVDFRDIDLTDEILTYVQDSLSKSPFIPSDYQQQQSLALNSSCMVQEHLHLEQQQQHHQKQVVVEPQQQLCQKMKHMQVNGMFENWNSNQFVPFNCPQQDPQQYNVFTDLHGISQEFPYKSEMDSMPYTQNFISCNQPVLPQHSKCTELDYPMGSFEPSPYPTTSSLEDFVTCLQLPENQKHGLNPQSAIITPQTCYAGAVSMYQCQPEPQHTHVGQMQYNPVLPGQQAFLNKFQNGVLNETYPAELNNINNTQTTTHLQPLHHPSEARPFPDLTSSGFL
Sequence of CYP2C19 (P33261 whole entry): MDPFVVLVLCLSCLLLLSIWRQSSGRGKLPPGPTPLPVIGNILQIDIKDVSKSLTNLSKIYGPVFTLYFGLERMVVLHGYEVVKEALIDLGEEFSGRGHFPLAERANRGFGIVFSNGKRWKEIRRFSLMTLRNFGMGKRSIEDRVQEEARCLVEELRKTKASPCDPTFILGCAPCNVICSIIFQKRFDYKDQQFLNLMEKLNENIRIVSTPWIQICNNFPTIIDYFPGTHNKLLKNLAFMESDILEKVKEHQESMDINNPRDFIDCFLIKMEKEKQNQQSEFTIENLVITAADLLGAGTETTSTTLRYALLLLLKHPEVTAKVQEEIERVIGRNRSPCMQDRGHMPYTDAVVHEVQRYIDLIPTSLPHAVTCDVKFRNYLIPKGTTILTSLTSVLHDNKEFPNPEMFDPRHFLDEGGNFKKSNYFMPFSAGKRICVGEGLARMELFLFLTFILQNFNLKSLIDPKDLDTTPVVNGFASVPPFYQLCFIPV
Sequence of UGT1A1 (P22309 26-533): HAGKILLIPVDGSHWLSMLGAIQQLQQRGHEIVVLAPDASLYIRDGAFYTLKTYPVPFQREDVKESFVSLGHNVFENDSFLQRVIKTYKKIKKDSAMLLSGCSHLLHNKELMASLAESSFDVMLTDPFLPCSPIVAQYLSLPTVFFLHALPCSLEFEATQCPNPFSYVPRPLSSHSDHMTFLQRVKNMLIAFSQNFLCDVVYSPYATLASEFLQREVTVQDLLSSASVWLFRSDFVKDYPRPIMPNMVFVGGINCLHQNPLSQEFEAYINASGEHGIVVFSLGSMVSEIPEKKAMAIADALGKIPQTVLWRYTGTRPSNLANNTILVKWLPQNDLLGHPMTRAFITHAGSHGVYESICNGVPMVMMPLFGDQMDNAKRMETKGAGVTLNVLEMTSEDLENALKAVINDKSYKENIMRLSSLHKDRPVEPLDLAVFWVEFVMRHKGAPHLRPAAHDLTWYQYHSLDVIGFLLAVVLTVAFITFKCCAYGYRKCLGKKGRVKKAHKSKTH
Sequence of uridine glucuronosyltransferase 1A1 (P22309 26-533): as above

SMILES: CC(C)OC(=O)[C@H](C)N[P@](=O)(CO[C@H](C)Cn1cnc2c(N)ncnc21)Oc1ccccc1 [GS-7340, 9-[(R)-2-[[(S)-[[(S)-1-(isopropoxycarbonyl)ethyl]amino]phenoxyphosphinyl]methoxy]propyl]adenine]
GS-7340 levels, fold higher when administered with cobicistat ([1]; Cohort 1 (Formulation 1, monolayer), FIG. 6): 2.2 fold | GS-7340 levels, fold higher when administered with cobicistat ([1]; Cohort 2 (Formulation 2, bilayer), FIG. 7): 2.2 fold | activation of human pregnane X receptor [2]: not an activator | adverse event leading to one discontinuation [3]: rhabdomyolysis (Grade 2) | enhanced anti-HIV activity relative to tenofovir (HIV-1): 500- to 1000 fold | inhibition of UGT1A1 function (UGT1A1): does not inhibit | IC50 [4]: > 7 µM | activation of aryl hydrocarbon receptor [5]: not an activator

effect on A-B flux of GS-7340 (caco-2 cell monolayers): increased the A-B flux | effect on B-A flux of GS-7340 (caco-2 cell monolayers): reducing B-A flux | substrate or inhibitor of transporters [6]: not a strong substrate or inhibitor | inhibition of uridine glucuronosyltransferase 1A1 [7]: does not appreciably inhibit | inhibition of CYP2B6 (CYP2B6): moderate inhibitor | inhibition of CYP1A2 (CYP1A2): does not appreciably inhibit | IC50 (Pgp): 36 ± 10 µM | substrate for BCRP (BCRP [8]): substrate | inhibition of CYP2C9 (CYP2C9): does not appreciably inhibit | potential as inducer of cytochrome P450, UGT1A1, or P-glycoprotein [9]: no/weak potential as an inducer | inhibition of CYP2D6 (CYP2D6): weak inhibitor | IC50 (BCRP [10]): 59 ± 28 µM | inhibition of CYP2C19 (CYP2C19): does not appreciably inhibit | inhibition of CYP2C8 (CYP2C8): does not appreciably inhibit | substrate for Pgp [11]: substrate
SMILES: CC(C)c1nc(CN(C)C(=O)N[C@@H](CCN2CCOCC2)C(=O)N[C@H](CC[C@H](Cc2ccccc2)NC(=O)OCc2cncs2)Cc2ccccc2)cs1 [cobicistat, 1,3-thiazol-5-ylmethyl (2R,5R)-(5-{[(2S)-2-[(methyl{[2-(propan-2-yl)-1,3-thiazol-4-yl]methyl}carbamoyl)amino]]-4-(morpholin-4-yl)butanamido}-1,6-diphenylhexan-2-yl)carbamate]

SMILES: C[C@H](Cn1cnc2c(N)ncnc21)OCP(=O)(O)O [tenofovir, 9-R-[(2-phosphonomethoxy)propyl]adenine]
interaction with human cytochrome P450 enzymes as substrate, inhibitor, or inducer (cytochrome P450 enzymes): does not interact significantly | systemic exposure equivalent, fold higher than a dose of tenofovir alone [12]: 3 to 4 fold | interaction with UDP-glucuronosyltransferases as substrate, inhibitor, or inducer [13]: does not interact significantly
